System: subjects with narcolepsy type-1 (NT1)
Assay: Part 4 POC NT1: treatment-emergent adverse events, single doses, crossover
Type: in vivo, human
Description: Subjects were randomized to 1 of 4 sequences.
Each subject received three doses of Compound A, including 1, 3, and 8 mg, and a single dose of placebo. […] All subjects underwent the washout period and completed all 4-way randomized crossover periods.
With one exception, each subject received three doses of Compound A, including 1, 3, and 8 mg, and a single dose of placebo. One patient withdrew from the study after the first dose due to venous access complications. […] With the exception of one patient as noted above, all subjects underwent the washout period and completed all 4-way randomized crossover periods.

In the case of `CS(=O)(=O)N[C@H]1CCCN2C(=O)COc3ccccc3C3CCC(CC3)OCC12` (stereo partly drawn) [Compound A, N-[(4S,4aR,7α,10α)-1,2,3,4,4a,5,7,8,9,10,16,17-dodecahydro-17-oxo-7,10-ethanopyrido[1,2-d][1,7,4]benzodioxaazacyclotridecin-4-yl]methanesulfonamide], the “AE Leading to Study Drug Discontinuation” value (1 mg (N = 4)) is reported as 0 n (%), the “Any SAEs” value (1 mg (N = 4)) is reported as 0 n (%) and the “Any TEAE” value (1 mg (N = 4)) is reported as 1 (25.0) n (%). For the same molecule, the Death (1 mg (N = 4)) was 0 n (%), the “TEAE Anaemia” value (1 mg (N = 4)) was 0 n (%) and the “TEAE Application site dermatitis” value (1 mg (N = 4)) was 1 (25.0) n (%). For the same molecule, the “TEAE Blood pressure increased” value (1 mg (N = 4)) was 0 n (%), the “TEAE Bruxism” value (1 mg (N = 4)) was 0 n (%) and the “TEAE Dermatitis contact” value (1 mg (N = 4)) was 0 n (%). The “TEAE Dizziness” value (1 mg (N = 4)) was 0 n (%), the “TEAE Hyperhidrosis” value (1 mg (N = 4)) was 0 n (%) and the “TEAE Hyperlipidaemia” value (1 mg (N = 4)) was 0 n (%). The “TEAE Insomnia” value (1 mg (N = 4)) was 0 n (%), the “TEAE Pollakiuria” value (1 mg (N = 4)) was 0 n (%) and the “TEAE Procedural anxiety” value (1 mg (N = 4)) was 0 n (%). The “TEAE Salivary hypersecretion” value (1 mg (N = 4)) was 0 n (%), the “TEAE Vascular access site injury” value (1 mg (N = 4)) was 0 n (%) and the “TEAE Vessel puncture site bruise” value (1 mg (N = 4)) was 0 n (%). The “TEAE by Highest Relationship: Not Related” value (shortened to “TEAE … Not Related”) (1 mg (N = 4)) was 1 (25.0) n (%), the “TEAE by Highest Relationship: Related” value (1 mg (N = 4)) was 0 n (%) and the “TEAE by Highest Severity: Mild” value (1 mg (N = 4)) was 1 (25.0) n (%). For the same molecule, the “TEAE by Highest Severity: Moderate” value (1 mg (N = 4)) was 0 n (%), the “TEAE by Highest Severity: Severe” value (1 mg (N = 4)) was 0 n (%) and the “AE Leading to Study Drug Discontinuation” value (1 mg (N = 9)) was 0 n (%). The “Any SAEs” value (1 mg (N = 9)) was 0 n (%), the “Any TEAE” value (1 mg (N = 9)) was 6 (66.7) n (%) and the Death (1 mg (N = 9)) was 0 n (%). For the same molecule, the “TEAE Anaemia” value (1 mg (N = 9)) was 0 n (%), the “TEAE Application site dermatitis” value (1 mg (N = 9)) was 1 (11.1) n (%) and the “TEAE Back pain” value (1 mg (N = 9)) was 0 n (%). The “TEAE Blood pressure increased” value (1 mg (N = 9)) was 0 n (%), the “TEAE Bruxism” value (1 mg (N = 9)) was 0 n (%) and the “TEAE Decreased appetite” value (1 mg (N = 9)) was 1 (11.1) n (%). For the same molecule, the “TEAE Dehydration” value (1 mg (N = 9)) was 1 (11.1) n (%), the “TEAE Dermatitis contact” value (1 mg (N = 9)) was 0 n (%) and the “TEAE Dizziness” value (1 mg (N = 9)) was 1 (11.1) n (%). The “TEAE Haemoglobin decreased” value (1 mg (N = 9)) was 0 n (%), the “TEAE Headache” value (1 mg (N = 9)) was 0 n (%) and the “TEAE Hyperhidrosis” value (1 mg (N = 9)) was 0 n (%). The “TEAE Hyperlipdaemia” value (1 mg (N = 9)) was 0 n (%), the “TEAE Insomnia” value (1 mg (N = 9)) was 0 n (%) and the “TEAE Middle Insomnia” value (1 mg (N = 9)) was 0 n (%). The “TEAE Nausea” value (1 mg (N = 9)) was 2 (22.2) n (%), the “TEAE Pollakiuria” value (1 mg (N = 9)) was 0 n (%) and the “TEAE Salivary hypersecretion” value (1 mg (N = 9)) was 1 (11.1) n (%). The “TEAE Sinus tachycardia” value (1 mg (N = 9)) was 1 (11.1) n (%), the “TEAE Vascular access site injury” value (1 mg (N = 9)) was 0 n (%) and the “TEAE Vessel puncture site bruise” value (1 mg (N = 9)) was 0 n (%). For the same molecule, the “TEAE Vessel puncture site pain” value (1 mg (N = 9)) was 0 n (%), the “TEAE … Not Related” value (1 mg (N = 9)) was 1 (11.1) n (%) and the “TEAE by Highest Relationship: Related” value (1 mg (N = 9)) was 5 (55.6) n (%). The “TEAE by Highest Severity: Mild” value (1 mg (N = 9)) was 6 (66.7) n (%), the “TEAE by Highest Severity: Moderate” value (1 mg (N = 9)) was 0 n (%) and the “TEAE by Highest Severity: Severe” value (1 mg (N = 9)) was 0 n (%). For the same molecule, the “AE Leading to Study Drug Discontinuation” value (3 mg (N = 4)) was 0 n (%), the “Any SAEs” value (3 mg (N = 4)) was 0 n (%) and the “Any TEAE” value (3 mg (N = 4)) was 2 (50.0) n (%). The Death (3 mg (N = 4)) was 0 n (%), the “TEAE Anaemia” value (3 mg (N = 4)) was 0 n (%) and the “TEAE Application site dermatitis” value (3 mg (N = 4)) was 0 n (%). The “TEAE Blood pressure increased” value (3 mg (N = 4)) was 0 n (%), the “TEAE Bruxism” value (3 mg (N = 4)) was 0 n (%) and the “TEAE Dermatitis contact” value (3 mg (N = 4)) was 1 (25.0) n (%). The “TEAE Dizziness” value (3 mg (N = 4)) was 0 n (%), the “TEAE Hyperhidrosis” value (3 mg (N = 4)) was 0 n (%) and the “TEAE Hyperlipidaemia” value (3 mg (N = 4)) was 0 n (%). The “TEAE Insomnia” value (3 mg (N = 4)) was 0 n (%), the “TEAE Pollakiuria” value (3 mg (N = 4)) was 0 n (%) and the “TEAE Procedural anxiety” value (3 mg (N = 4)) was 1 (25.0) n (%). The “TEAE Salivary hypersecretion” value (3 mg (N = 4)) was 0 n (%), the “TEAE Vascular access site injury” value (3 mg (N = 4)) was 1 (25.0) n (%) and the “TEAE Vessel puncture site bruise” value (3 mg (N = 4)) was 1 (25.0) n (%). The “TEAE … Not Related” value (3 mg (N = 4)) was 2 (50.0) n (%), the “TEAE by Highest Relationship: Related” value (3 mg (N = 4)) was 0 n (%) and the “TEAE by Highest Severity: Mild” value (3 mg (N = 4)) was 2 (50.0) n (%). For the same molecule, the “TEAE by Highest Severity: Moderate” value (3 mg (N = 4)) was 0 n (%), the “TEAE by Highest Severity: Severe” value (3 mg (N = 4)) was 0 n (%) and the “AE Leading to Study Drug Discontinuation” value (3 mg (N = 9)) was 0 n (%). For the same molecule, the “Any SAEs” value (3 mg (N = 9)) was 0 n (%), the “Any TEAE” value (3 mg (N = 9)) was 5 (55.6) n (%) and the Death (3 mg (N = 9)) was 0 n (%). For the same molecule, the “TEAE Anaemia” value (3 mg (N = 9)) was 0 n (%), the “TEAE Application site dermatitis” value (3 mg (N = 9)) was 0 n (%) and the “TEAE Back pain” value (3 mg (N = 9)) was 0 n (%). The “TEAE Blood pressure increased” value (3 mg (N = 9)) was 0 n (%), the “TEAE Bruxism” value (3 mg (N = 9)) was 0 n (%) and the “TEAE Decreased appetite” value (3 mg (N = 9)) was 0 n (%). The “TEAE Dehydration” value (3 mg (N = 9)) was 0 n (%), the “TEAE Dermatitis contact” value (3 mg (N = 9)) was 2 (22.2) n (%) and the “TEAE Dizziness” value (3 mg (N = 9)) was 0 n (%). The “TEAE Haemoglobin decreased” value (3 mg (N = 9)) was 0 n (%), the “TEAE Headache” value (3 mg (N = 9)) was 0 n (%) and the “TEAE Hyperhidrosis” value (3 mg (N = 9)) was 0 n (%). The “TEAE Hyperlipdaemia” value (3 mg (N = 9)) was 0 n (%), the “TEAE Insomnia” value (3 mg (N = 9)) was 0 n (%) and the “TEAE Middle Insomnia” value (3 mg (N = 9)) was 1 (11.1) n (%). For the same molecule, the “TEAE Nausea” value (3 mg (N = 9)) was 0 n (%), the “TEAE Pollakiuria” value (3 mg (N = 9)) was 2 (22.2) n (%) and the “TEAE Salivary hypersecretion” value (3 mg (N = 9)) was 1 (11.1) n (%). For the same molecule, the “TEAE Sinus tachycardia” value (3 mg (N = 9)) was 0 n (%), the “TEAE Vascular access site injury” value (3 mg (N = 9)) was 1 (11.1) n (%) and the “TEAE Vessel puncture site bruise” value (3 mg (N = 9)) was 1 (11.1) n (%). For the same molecule, the “TEAE Vessel puncture site pain” value (3 mg (N = 9)) was 0 n (%) and the “TEAE … Not Related” value (3 mg (N = 9)) was 2 (22.2) n (%).

Source: patent US20250186405A1, “Compound For Use In Treating Narcolepsy” (Alkermes, Inc., priority 2023, published 2025)
